Data set [1] deals with T1, hERG potassium ion channel (Homo sapiens, UniProt Q12809).
T1 construct: expressed in transfected cells; host or cells: Chinese hamster ovary K1 (CHO)
As to the kind of experiment: Assay 5 - hERG assay (SyncroPatch 384PE patch clamp, CHO cells). The class given is cell-based. The settings on record: human, CHO-K1 cells over-expressing hERG, pH 7.4, geometric mean, read-out: Assay 5 (hERG Hu CHO IF EPh CR-Syncro) GMean IC50. The gist of the method:
(§1)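 Automated high-throughput patch clamp on CHO-K1 cells overexpressing hERG at room temperature, KF/KCl internal with escin, NMDG-containing external at pH 7.4. Six-point cumulative compound addition, 0.33% DMSO final; wells kept only with seal >30 MΩ, Z′ >0.4 and current >0.2 nA.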
Background: Block of hERG is tested as a sign of cardiac risk.

Another data set has as its target T2, human PCSK9 (Homo sapiens, UniProt Q8NBP7).
T2 construct: biotinylated human PCSK9 (31-692)-Avi-His6; His6 (C)
Kind of data set: Assay 2 - Biophysical human PCSK9 assay (SPR, Biacore). The class given is binding. The settings on record: geometric mean; SPR at 30° C; read-out: Assay 2 (PCSK9 BIAcore DBA CR) GMean Kd. Here is the method:
Assay 2—Biophysical Human PCSK9 Assay
The SPR binding experiments were performed on a Biacore S200 optical biosensor unit at 30° C. A Series S Sensor Chip SA that is designed to bind biotinylated molecules for interaction analysis in Biacore systems was equilibrated at room temperature prior to use. The running buffer for protein tethering and subsequent ligand binding experiments was 10 mM HEPES pH 7.4, 150 mM NaCl, 0.05% (v/v) Tween 20 pH 7.4.
For the surface tethering of PCSK9, biotinylated human PCSK9 (31-692)-Avi-His6 at a concentration of 0.5 mg/mL was used. Prior to the surface tethering, the surface was exposed to a solution of 50 mM NaOH, 500 mM NaCl via 3 consecutive injections of this solution with a contact time of 60 s and a flowrate of 10 μL min^−1 to remove non-conjugated streptavidin. The PCSK9 protein was diluted to a concentration of 20 μg/mL using running buffer and injected with a contact time of 180-300 s and a flowrate of 10 μL min^−1 over a single flow channel (typically flow channel 2 or flow channel 4) with the aim to achieve protein capture levels of >5000 response units (RU). Remaining biotin binding sites were blocked via 2 consecutive injections of a 10 μM D-biotin solution in running buffer with a contact time of 60 s and a flowrate of 10 μL min^−1 over all flow-channels. Flow-channels 1 and 3 typically served as a reference surface throughout the subsequent binding experiments.
The binding experiments were all performed at a flow rate of 30 PL min^−1 and by employing the method of single-cycle kinetics. This approach involves the sequential injection of a compound concentration series without regeneration steps. A contact time between 90-150 s was selected, which was followed by a 40 min dissociation phase to allow for a proper estimation of the dissociation rate constant. Test compounds were delivered in DMSO at a concentration of 10 mM and a digital dispenser HP D300 was used to set up the compound concentration series using 6 concentrations. The tested concentrations have been 30, 100, 300, 1000, 3000 and 10000 nM. Prior to injecting any compound, the surfaces were equilibrated by injecting running buffer over them in three separate pulses. The data collection rate was set to 10 Hz.
The raw sensorgrams of the compound injections were first subjected to reference subtraction (subtracting the signal from flow channel 1 and/or 3 from the signal from channels 2 and/or 4 respectively) and then blank subtraction (subtracting the signal from injecting DMSO controls from the reference subtracted data). The resulting double-referenced sensorgrams were then fitted using a 1:1 binding interaction model using the manufactures software package to extract kinetic- and affinity data. Active compounds have been defined by creating a detectable binding signal at the highest compound concentration ([…]) of 3 RUs. Kinetic- and affinity data on active compounds are only provided for those compounds where the binding signal at the highest compound concentration ([…]) is 50% of the theoretical maximum binding signal for a 1:1 binding interaction (Rmax, typically between 15-20 RUs) in order to enable a proper fitting of the data.
A general note: SPR reads the build-up and loss of mass on a sensor chip optically.

The target in a further data set is PCSK9 (Homo sapiens, UniProt Q8NBP7, G670E/V474I). As to the kind of experiment: biochemical.
In data set [2] the target is GSK3β (Glycogen synthase kinase-3 beta) (Homo sapiens, UniProt P49841). Kind of data set: Assay 6 - GSK3β assay (ThermoFisher Z-Lyte). The class given is biochemical. The settings on record: geometric mean; ATP Conc: 10 μM; read-out: Assay 6 (GSK3β FRET-Z-Lyte CR) GMean IC50 (μM) ATP Conc: 10. The gist of the method: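 Z-Lyte fluorescence kinase assay with 0.22-0.92 ng GSK3β and 2 μM Ser/Thr 09 peptide in 50 mM HEPES pH 7.5, 10 mM MgCl2, 1 mM EGTA, 0.01% BRIJ-35. Kinase reaction 60 min at room temperature, then 60 min development. 10-point 3-fold titration from 10 μM in 1% DMSO, fitted to a sigmoidal dose-response curve.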

The target in data set [3] is T3, potassium ion channel hERG (human Ether-á-go-go-Related Gene) (Homo sapiens, UniProt Q12809).
T3 construct: expressed in transfected cells; host or cells: Chinese hamster ovary K1 (CHO)
As to the kind of experiment: Assay 5 - hERG assay (SyncroPatch 384PE patch clamp, CHO cells). The class given is cell-based. The settings on record: geometric mean; CHO cells over-expressing hERG; read-out: Assay 5 (hERG Hu CHO IF EPh CR-Syncro) GMean IC50. The gist of the method: as §1

The conditions of data set [4]: clinical trials, patients; alirocumab compared to placebo; cited from earlier work.

T3 sequence (Q12809 whole entry): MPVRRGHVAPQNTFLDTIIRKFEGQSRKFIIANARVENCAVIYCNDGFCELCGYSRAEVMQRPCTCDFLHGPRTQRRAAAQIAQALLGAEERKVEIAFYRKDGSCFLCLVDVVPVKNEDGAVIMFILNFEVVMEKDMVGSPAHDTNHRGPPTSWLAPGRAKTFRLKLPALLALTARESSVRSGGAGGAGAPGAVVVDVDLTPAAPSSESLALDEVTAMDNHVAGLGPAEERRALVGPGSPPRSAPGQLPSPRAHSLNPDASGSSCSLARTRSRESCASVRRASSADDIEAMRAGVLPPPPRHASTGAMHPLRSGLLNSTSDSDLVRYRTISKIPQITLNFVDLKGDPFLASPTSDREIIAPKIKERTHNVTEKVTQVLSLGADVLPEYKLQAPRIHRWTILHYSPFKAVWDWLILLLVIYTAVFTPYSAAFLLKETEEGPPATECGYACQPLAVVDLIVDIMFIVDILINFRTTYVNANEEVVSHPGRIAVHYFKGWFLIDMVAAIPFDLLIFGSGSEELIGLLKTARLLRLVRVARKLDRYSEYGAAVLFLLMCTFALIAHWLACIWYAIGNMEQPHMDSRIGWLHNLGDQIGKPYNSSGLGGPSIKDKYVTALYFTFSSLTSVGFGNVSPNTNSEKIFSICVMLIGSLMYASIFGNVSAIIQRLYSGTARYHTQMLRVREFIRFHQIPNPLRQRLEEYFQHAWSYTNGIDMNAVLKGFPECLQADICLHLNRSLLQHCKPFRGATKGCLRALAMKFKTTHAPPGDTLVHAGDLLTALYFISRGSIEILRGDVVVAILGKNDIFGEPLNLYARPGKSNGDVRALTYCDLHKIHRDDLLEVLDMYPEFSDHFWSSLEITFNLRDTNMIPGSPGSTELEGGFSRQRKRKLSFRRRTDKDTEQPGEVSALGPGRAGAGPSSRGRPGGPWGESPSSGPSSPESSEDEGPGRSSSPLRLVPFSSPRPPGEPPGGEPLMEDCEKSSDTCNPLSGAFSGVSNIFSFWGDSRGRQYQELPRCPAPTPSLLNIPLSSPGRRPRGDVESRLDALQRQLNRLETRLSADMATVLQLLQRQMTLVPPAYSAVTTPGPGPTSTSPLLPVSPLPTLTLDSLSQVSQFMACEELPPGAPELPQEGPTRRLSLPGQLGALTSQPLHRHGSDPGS
Sequence of PCSK9 (Q8NBP7 with tags, fused parts or gaps V474I/G670E): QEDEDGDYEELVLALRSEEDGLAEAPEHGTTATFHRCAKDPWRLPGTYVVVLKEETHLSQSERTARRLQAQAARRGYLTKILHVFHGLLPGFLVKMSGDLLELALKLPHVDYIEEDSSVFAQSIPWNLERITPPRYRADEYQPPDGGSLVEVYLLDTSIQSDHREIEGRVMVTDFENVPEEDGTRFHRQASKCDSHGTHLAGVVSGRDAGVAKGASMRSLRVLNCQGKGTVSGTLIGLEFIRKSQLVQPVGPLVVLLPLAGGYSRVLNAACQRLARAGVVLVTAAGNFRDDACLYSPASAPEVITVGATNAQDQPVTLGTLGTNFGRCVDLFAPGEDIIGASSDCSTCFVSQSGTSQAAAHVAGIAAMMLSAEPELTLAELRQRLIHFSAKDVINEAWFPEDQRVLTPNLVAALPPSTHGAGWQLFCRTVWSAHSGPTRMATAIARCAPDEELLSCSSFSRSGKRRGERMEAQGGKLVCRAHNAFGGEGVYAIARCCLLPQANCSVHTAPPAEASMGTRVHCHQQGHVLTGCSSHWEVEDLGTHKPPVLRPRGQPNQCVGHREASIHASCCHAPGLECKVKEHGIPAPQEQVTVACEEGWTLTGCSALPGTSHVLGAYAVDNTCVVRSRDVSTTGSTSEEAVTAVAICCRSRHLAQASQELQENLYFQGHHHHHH
Sequence of GSK3β (Glycogen synthase kinase-3 beta) (P49841 whole entry): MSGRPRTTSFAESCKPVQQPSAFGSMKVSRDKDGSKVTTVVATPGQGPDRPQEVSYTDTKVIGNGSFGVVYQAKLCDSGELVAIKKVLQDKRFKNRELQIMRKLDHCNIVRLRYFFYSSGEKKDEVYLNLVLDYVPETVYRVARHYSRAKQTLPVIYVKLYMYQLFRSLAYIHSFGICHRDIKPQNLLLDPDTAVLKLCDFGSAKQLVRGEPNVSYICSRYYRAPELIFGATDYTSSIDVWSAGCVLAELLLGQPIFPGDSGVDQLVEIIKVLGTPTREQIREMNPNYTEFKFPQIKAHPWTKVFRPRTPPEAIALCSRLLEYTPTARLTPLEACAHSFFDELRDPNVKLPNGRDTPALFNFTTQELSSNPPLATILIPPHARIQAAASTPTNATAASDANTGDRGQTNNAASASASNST
T2 sequence (Q8NBP7 31-692): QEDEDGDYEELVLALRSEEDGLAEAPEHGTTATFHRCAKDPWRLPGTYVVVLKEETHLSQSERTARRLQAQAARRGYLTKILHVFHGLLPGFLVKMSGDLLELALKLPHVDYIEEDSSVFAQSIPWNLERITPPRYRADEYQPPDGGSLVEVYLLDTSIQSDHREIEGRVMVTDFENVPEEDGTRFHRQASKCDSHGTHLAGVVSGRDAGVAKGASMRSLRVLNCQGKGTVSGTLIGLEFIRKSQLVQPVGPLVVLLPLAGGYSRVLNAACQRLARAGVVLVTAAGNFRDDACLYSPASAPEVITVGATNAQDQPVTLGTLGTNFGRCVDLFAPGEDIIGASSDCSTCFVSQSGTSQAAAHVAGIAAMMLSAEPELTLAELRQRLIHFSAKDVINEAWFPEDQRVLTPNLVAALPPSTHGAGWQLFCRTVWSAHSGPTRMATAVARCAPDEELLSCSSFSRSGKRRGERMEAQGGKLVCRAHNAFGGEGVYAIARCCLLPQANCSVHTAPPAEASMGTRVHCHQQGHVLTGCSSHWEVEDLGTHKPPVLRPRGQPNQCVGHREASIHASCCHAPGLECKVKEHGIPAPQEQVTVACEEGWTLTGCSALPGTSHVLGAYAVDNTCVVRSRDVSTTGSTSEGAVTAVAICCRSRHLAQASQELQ
T1 sequence (Q12809 whole entry): as the sequence (Q12809 whole entry) above

As usually defined, the IC50 is the midpoint of a concentration-inhibition curve. As a reminder, the Kd is the constant that tells how readily two partners part at equilibrium. As to `Cc1nc(N[C@H]2CC[C@H](Nc3cnc(OC(F)F)cn3)C2)ccc1-n1ccccc1=O` [Example 97, 6′-(((1S,3S)-3-((5-(Difluoromethoxy)pyrazin-2-yl)amino)cyclopentyl)amino)-2′-methyl-2H-[1,3′-bipyridin]-2-one], the 50% inhibitory concentration (IC50) is 35400 nM in data set [1], 63 nM against PCSK9 and above 10 µM in data set [2]. The Kd on human PCSK9 amounted to 26 nM.

Regarding `O=c1ccccn1-c1ccc(N[C@H]2CC[C@H](Nc3cnc4ccc(Cl)cc4n3)C2)nc1` [Example 139, 6′-(((1S,3S)-3-((7-Chloroquinoxalin-2-yl)amino)cyclopentyl)amino)-2H-[1,3′-bipyridin]-2-one], the IC50 is 4600 nM in data set [3], 235 nM against PCSK9 and 0.292 µM in data set [2]. Also, at human PCSK9, the Kd worked out at 460 nM.

Consider `Cc1cncc(N[C@H]2CC[C@H](Nc3ccc(-n4ccccc4=O)cn3)C2)n1` [Example 141, 6′-(((1S,3S)-3-((6-Methylpyrazin-2-yl)amino)cyclopentyl)amino)-2H-[1,3′-bipyridin]-2-one], for which the results for the concentration for half-maximal inhibition (IC50) (in data set [3]; against PCSK9; in data set [2]) were above 40000 nM, 592 nM and above 10 µM, respectively. Also, the Kd at human PCSK9 was determined as 405 nM.

Regarding `N#Cc1cncc(N[C@H]2CC[C@H](Nc3ccc(-n4ccccc4=O)cn3)C2)n1` [Example 142, 6-(((1S,3S)-3-((2-Oxo-2H-[1,3′-bipyridin]-6′-yl)amino)cyclopentyl)amino)pyrazine-2-carbonitrile], the figures for the IC50 (in data set [3]; at PCSK9; in data set [2]) were above 35400 nM, 1610 nM and 0.764 µM, respectively. For the same compound, the Kd at human PCSK9 is 2420 nM.

As for `O=c1ccccn1-c1ccc(N[C@H]2CC[C@H](Nc3cnc4cccnc4n3)C2)nc1` [Example 143, 6′-(((1S,3S)-3-(Pyrido[2,3-b]pyrazin-3-ylamino)cyclopentyl)amino)-2H-[1,3′-bipyridin]-2-one], the results for the IC50 (in data set [3]; against PCSK9; in data set [2]) were above 40000 nM, 2390 nM and above 10 µM, respectively. In addition, the Kd at human PCSK9 was 1540 nM.

On to `COc1cccc2ncc(N[C@H]3CC[C@H](Nc4ccc(-n5ccccc5=O)cn4)C3)nc12` [Example 144, 6′-(((1S,3S)-3-((8-Methoxyquinoxalin-2-yl)amino)cyclopentyl)amino)-2H-[1,3′-bipyridin]-2-one], for which the half-maximal inhibitory concentration (IC50) in data set [3] is above 35000 nM; at PCSK9, 484 nM; in data set [2], 2.34 µM. Moreover, on human PCSK9, the equilibrium dissociation constant (Kd) came out at 336 nM.

On to `O=c1ccccn1-c1ccc(N[C@H]2CC[C@H](Nc3cnc4c(F)cccc4n3)C2)nc1` [Example 145, 6′-(((1S,3S)-3-((5-Fluoroquinoxalin-2-yl)amino)cyclopentyl)amino)-2H-[1,3′-bipyridin]-2-one], for which the results for the 50% inhibitory concentration (IC50) (in data set [3]; against PCSK9; in data set [2]) were 18500 nM, 960 nM and above 10 µM, respectively. The equilibrium dissociation constant (Kd) at human PCSK9 was found to be 637 nM.

Turning to `Nc1ccc2ncc(N[C@H]3CC[C@H](Nc4ccc(-n5ccccc5=O)cn4)C3)nc2n1` [Example 146, 6′-(((1S,3S)-3-((6-Aminopyrido[2,3-b]pyrazin-3-yl)amino)cyclopentyl)amino)-2H-[1,3′-bipyridin]-2-one], the IC50 was above 40000 nM in data set [3], 1480 nM against PCSK9 and above 10 µM in data set [2]. Besides, the Kd at human PCSK9 stood at 1500 nM.

As to `Cc1cnc(N[C@H]2CC[C@H](Nc3ccc(-n4nc(C)ccc4=O)cn3)C2)cn1` [Example 231, 6-Methyl-2-(6-(((1S,3S)-3-((5-methylpyrazin-2-yl)amino)cyclopentyl)amino)pyridin-3-yl)pyridazin-3 (2H)-one], the results for the half-inhibitory concentration (IC50) (in data set [3]; against PCSK9; in data set [2]) were above 40100 nM, 46 nM and above 10 µM, respectively. On human PCSK9, the Kd amounted to 35 nM.

`Cc1cnc(N[C@H]2CC[C@H](Nc3ccc(-n4nccc(C#N)c4=O)cn3)C2)cn1` [Example 278, 2-(6-(((1S,3S)-3-((5-Methylpyrazin-2-yl)amino)cyclopentyl)amino)pyridin-3-yl)-3-oxo-2,3-dihydropyridazine-4-carbonitrile]: the IC50 in data set [3] was above 40100 nM; against PCSK9, 13 nM; in data set [2] it was above 10 µM. Moreover, on human PCSK9, the Kd stood at 12 nM.

alirocumab: in data set [4], the “decrease in LDL levels” value is given as “about 50%”.

Source of the values: patent publication US20240217951A1, “PCSK9 INHIBITORS AND METHODS OF USE THEREOF” (AstraZeneca AB, priority 2022, published 2024).
